Measured values: patent publication US20230085307A1, “PYRIDAZINONE COMPOUND AND HERBICIDE” (NISSAN CHEMICAL CORPORATION, priority 2019, published 2023)

Key:
Chinese sprangletop = assay: Test Example 3: herbicidal effect by foliage application, Wagner pot (Table 18, symbol D); assay type: in vivo, chinese sprangletop (Leptochloa chinensis); conditions: amount of applied herbicide 320 g/ha
In short: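 Plants were sown in alluvial soil held under 0.1–0.5 cm standing water and grown 14 days in a greenhouse at 25–30 °C. An emulsifiable formulation, water-diluted to the set dose, was then sprayed onto the foliage, and effects were scored three weeks later using previously defined criteria.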

windgrass = assay: Test Example 4: herbicidal effect by soil treatment (Table 19, symbol L); assay type: in vivo, windgrass (Apera spica-venti); conditions: amount of applied herbicide 320 g/ha
In short: (§1)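 Step 1: sow seeds in sterilized diluvial soil, cover ~1.5 cm. Step 2: spray diluted emulsion onto soil surface at predetermined rate. Step 3: greenhouse, 25–30° C, three weeks. Step 4: grade effect on each plant by earlier criteria.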

oval-leafed pondweed [1] = assay: Test Example 2: herbicidal activity, application during weed generation under submerged conditions (Table 17, symbol C); assay type: in vivo, oval-leafed pondweed (Monochoria vaginalis); conditions: AAH 320 g/ha; application during weed generation, submerged conditions
In short: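 3-wk visual-criteria score after one water-surface dose. Emulsion formulation, water-diluted to set rate; applied at 1–2 leaf stage; alluvial soil, 4 cm standing water; seeds co-sown; greenhouse 25–30° C.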

late watergrass = assay: Test Example 1: herbicidal activity, application before weed generation under submerged conditions (Table 16, symbol A); assay type: in vivo, late watergrass (Echinochloa oryzicola); conditions: 320 g/ha applied herbicide
In short: (§2)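 Emulsion formulation, water-diluted to set dose, was put onto the flooded surface (4 cm depth, alluvial soil) the same day weeds were sown and 2.5-leaf rice transplanted. After 3 weeks at 25-30 °C under glass, each species was rated 0 (≤5% kill) to 5 (≥90% kill).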

Japanese bulrush = assay: Test Example 1: herbicidal activity, application before weed generation under submerged conditions (Table 16, symbol B); assay type: in vivo, Japanese bulrush (Schoenoplectus juncoides); conditions: 320 g/ha applied herbicide
In short: as §2

green foxtail = assay: Test Example 5: herbicidal effect by foliage application, plastic box (Table 20, symbol G); assay type: in vivo, green foxtail (Setaria viridis); conditions: foliage application, 320 g/ha, evaluated three weeks after application
In short: (§3)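 Foliar spray test: emulsion formulation diluted in water to a set application rate, sprayed onto 14-day-old plants raised in diluvial soil at 25° C to 30° C under glass. Both herbicidal effect and crop effect rated visually three weeks later.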

chickweed = assay: Test Example 5: herbicidal effect by foliage application, plastic box (Table 20, symbol P); assay type: in vivo, common chickweed (Stellaria media); conditions: foliage application, 320 g/ha, evaluated three weeks after application
In short: as §3

velvetleaf = assay: Test Example 5: herbicidal effect by foliage application, plastic box (Table 20, symbol M); assay type: in vivo, velvetleaf (Abutilon theophrasti); conditions: foliage application, 320 g/ha, evaluated three weeks after application
In short: as §3

blackgrass = assay: Test Example 4: herbicidal effect by soil treatment (Table 19, symbol J); assay type: in vivo, blackgrass (Alopecurus myosuroides); conditions: amount of applied herbicide 320 g/ha
In short: as §1

persian speedwell = assay: Test Example 4: herbicidal effect by soil treatment (Table 19, symbol R); assay type: in vivo, Persian speedwell (Veronica persica); conditions: amount of applied herbicide 320 g/ha
In short: as §1

oval-leafed pondweed [2] = assay: Test Example 1: herbicidal activity, application before weed generation under submerged conditions (Table 16, symbol C); assay type: in vivo, oval-leafed pondweed (Monochoria vaginalis); conditions: 320 g/ha applied herbicide
In short: as §2

SMILES | herbicidal effect on D: Chinese sprangletop (Chinese sprangletop) | L: windgrass, herbicidal effect rating (windgrass) | herbicidal effect rating, C: oval-leafed pondweed (oval-leafed pondweed [1]) | Herbicidal effect on A: late watergrass (grade 0-5) (late watergrass) | Herbicidal effect on B: Japanese bulrush (grade 0-5) (Japanese bulrush) | herbicidal effect on G: green foxtail (criteria 0-5) (green foxtail) | herbicidal effect on P: chickweed (criteria 0-5) (chickweed) | herbicidal effect on M: velvetleaf (criteria 0-5) (velvetleaf) | J: blackgrass, herbicidal effect rating (blackgrass) | R: persian speedwell, herbicidal effect rating (persian speedwell) | Herbicidal effect on C: oval-leafed pondweed (grade 0-5) (oval-leafed pondweed [2]) | herbicidal effect on L: windgrass (windgrass) | herbicidal effect on J: blackgrass (blackgrass) | herbicidal effect on R: persian speedwell (persian speedwell)
CCCC(=O)Oc1c(C)nn(C)c(=O)c1-c1c(-c2ccc(Br)cc2)sc2ccc(F)cc12 [2-206] | 4 (Herbicidal rate of 70% or more and less than 90%) | 2 (Herbicidal rate of 20% or more and less than 40%) | 4 (Herbicidal rate of 70% or more and less than 90%) | 5 (Herbicidal rate of 90% or more (almost completely withered)) | 5 (Herbicidal rate of 90% or more (almost completely withered)) | 3 (Herbicidal rate of 40% or more and less than 70%) | 5 (Herbicidal rate of 90% or more (almost completely withered)) | 5 (Herbicidal rate of 90% or more (almost completely withered)) | 0 (Herbicidal rate of 5% or less (almost no effect)) | 5 (Herbicidal rate of 90% or more (almost completely withered)) | 4 (Herbicidal rate of 70% or more and less than 90%) |  |  | 
CCc1ccc(-c2sc3ccc(F)cc3c2-c2c(O)c(C)nn(C)c2=O)cc1 [2-207] | 5 (Herbicidal rate of 90% or more (almost completely withered)) | 3 (Herbicidal rate of 40% or more and less than 70%) | 1 (Herbicidal rate of 5% or more and less than 20%) | 2 (Herbicidal rate of 20% or more and less than 40%) | 4 (Herbicidal rate of 70% or more and less than 90%) | 4 (Herbicidal rate of 70% or more and less than 90%) | 5 (Herbicidal rate of 90% or more (almost completely withered)) | 5 (Herbicidal rate of 90% or more (almost completely withered)) | 0 (Herbicidal rate of 5% or less (almost no effect)) | 5 (Herbicidal rate of 90% or more (almost completely withered)) | 3 (Herbicidal rate of 40% or more and less than 70%) |  |  | 
Cc1nn(C)c(=O)c(-c2c(-c3cccc(OCC(C)C)c3)sc3ccc(F)cc23)c1O [2-221] | 5 (Herbicidal rate of 90% or more (almost completely withered)) | 3 (Herbicidal rate of 40% or more and less than 70%) | 3 (Herbicidal rate of 40% or more and less than 70%) | 5 (Herbicidal rate of 90% or more (almost completely withered)) | 5 (Herbicidal rate of 90% or more (almost completely withered)) | 5 (Herbicidal rate of 90% or more (almost completely withered)) | 5 (Herbicidal rate of 90% or more (almost completely withered)) | 5 (Herbicidal rate of 90% or more (almost completely withered)) | 5 (Herbicidal rate of 90% or more (almost completely withered)) | 5 (Herbicidal rate of 90% or more (almost completely withered)) | 5 (Herbicidal rate of 90% or more (almost completely withered)) |  |  | 
Cc1nn(C)c(=O)c(-c2c(-c3cccc(OC(C)(C)C)c3)sc3ccc(F)cc23)c1O [2-223] | 3 (Herbicidal rate of 40% or more and less than 70%) |  | 0 (Herbicidal rate of 5% or less (almost no effect)) | 4 (Herbicidal rate of 70% or more and less than 90%) | 4 (Herbicidal rate of 70% or more and less than 90%) | 1 (Herbicidal rate of 5% or more and less than 20%) | 5 (Herbicidal rate of 90% or more (almost completely withered)) | 5 (Herbicidal rate of 90% or more (almost completely withered)) |  |  | 2 (Herbicidal rate of 20% or more and less than 40%) | 0 (Herbicidal rate of 5% or less (almost no effect)) | 0 (Herbicidal rate of 5% or less (almost no effect)) | 4 (Herbicidal rate of 70% or more and less than 90%)
CCCC(=O)Oc1c(C)nn(C)c(=O)c1-c1c(-c2ccc(C(F)F)cc2)sc2ccc(F)cc12 [2-228] | 4 (Herbicidal rate of 70% or more and less than 90%) |  | 3 (Herbicidal rate of 40% or more and less than 70%) | 5 (Herbicidal rate of 90% or more (almost completely withered)) | 4 (Herbicidal rate of 70% or more and less than 90%) | 5 (Herbicidal rate of 90% or more (almost completely withered)) | 5 (Herbicidal rate of 90% or more (almost completely withered)) | 5 (Herbicidal rate of 90% or more (almost completely withered)) |  |  | 4 (Herbicidal rate of 70% or more and less than 90%) | 0 (Herbicidal rate of 5% or less (almost no effect)) | 0 (Herbicidal rate of 5% or less (almost no effect)) | 5 (Herbicidal rate of 90% or more (almost completely withered))
CCSc1ccc(-c2sc3ccc(F)cc3c2-c2c(O)c(C)nn(C)c2=O)cc1 [2-244] | 5 (Herbicidal rate of 90% or more (almost completely withered)) |  | 4 (Herbicidal rate of 70% or more and less than 90%) | 3 (Herbicidal rate of 40% or more and less than 70%) | 0 (Herbicidal rate of 5% or less (almost no effect)) | 5 (Herbicidal rate of 90% or more (almost completely withered)) | 5 (Herbicidal rate of 90% or more (almost completely withered)) | 5 (Herbicidal rate of 90% or more (almost completely withered)) |  |  | 0 (Herbicidal rate of 5% or less (almost no effect)) | 3 (Herbicidal rate of 40% or more and less than 70%) | 5 (Herbicidal rate of 90% or more (almost completely withered)) | 5 (Herbicidal rate of 90% or more (almost completely withered))
